Reference: patent US11072634B2, “Inhibitors of transglutaminases” (Zedira GmbH, priority 2016, dated 2021)

These compounds were tested against T1, recombinant human tissue transglutaminase (rhTG2) (Homo sapiens, UniProt P21980) (assay: Inhibition of rec. human tissue transglutaminase (fluorescence, Abz-APE(CAD-DNP)QEA-OH)). Settings: Table 2, TG2 inhibitors.
T1 construct: purchased Zedira 1022 (so in the source); T022)
T1 sequence (P21980 1-687): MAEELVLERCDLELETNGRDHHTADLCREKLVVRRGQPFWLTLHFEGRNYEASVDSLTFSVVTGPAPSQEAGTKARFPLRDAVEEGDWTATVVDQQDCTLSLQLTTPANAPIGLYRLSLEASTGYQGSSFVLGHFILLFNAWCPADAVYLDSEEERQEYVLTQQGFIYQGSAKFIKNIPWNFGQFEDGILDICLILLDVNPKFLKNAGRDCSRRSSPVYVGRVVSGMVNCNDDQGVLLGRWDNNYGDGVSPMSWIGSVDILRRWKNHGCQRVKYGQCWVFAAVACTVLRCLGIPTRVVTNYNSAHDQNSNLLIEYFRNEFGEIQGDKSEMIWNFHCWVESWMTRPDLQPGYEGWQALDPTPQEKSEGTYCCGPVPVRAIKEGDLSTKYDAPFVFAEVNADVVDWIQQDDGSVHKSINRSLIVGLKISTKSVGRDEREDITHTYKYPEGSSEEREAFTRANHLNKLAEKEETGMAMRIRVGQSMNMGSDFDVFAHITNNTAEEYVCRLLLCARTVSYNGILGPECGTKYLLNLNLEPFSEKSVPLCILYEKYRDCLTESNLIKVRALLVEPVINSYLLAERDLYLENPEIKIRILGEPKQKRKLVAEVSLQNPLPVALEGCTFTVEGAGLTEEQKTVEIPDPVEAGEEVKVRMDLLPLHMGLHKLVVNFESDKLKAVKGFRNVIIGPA
Assay type: biochemical
Protocol: Method for Inhibition Studies of Rec. Human Tissue Transglutaminase (rhTG2)
250 μg lyophilized His-tagged recombinant human tissue transglutaminase (His6-rhTG2, Zedira product 1022) is reconstituted in H2O (volume depends on original volume before lyophilization) resulting in a buffer containing 10 mM Tris-HCl, 150 mM NaCl, 1 mM EDTA, 5 mM DTT, 189 mg/ml maltodextrin, pH=8.1. The rhTG2 stock solution is diluted in buffer (50 mM Tris-HCl, 7.5 mM CaCl2, 150 mM NaCl, pH=7.4) to give a working solution of 100 U/ml (based on the amine-incorporation activity measured using T036, described below).
A 10 mM inhibitor stock solution is prepared in DMSO, and from this stock solution a serial 1:2-fold dilution series is prepared, also in DMSO. Each of these initial dilutions is subsequently diluted 1:50-fold with buffer (50 mM Tris-HCl, 7.5 mM CaCl2, 150 mM NaCl, pH=7.4) to yield the final working dilutions containing 2% (v/v) DMSO. 15 μl of inhibitor working dilution are added per well of a 96 well microtiter plate. As control, 15 μl of a 2% (v/v) DMSO solution prepared using the buffer mentioned above are added per well.
600 μl of His6-rhTG2 working solution are added to 11.4 ml assay buffer (50 mM Iris-HCl, 7.5 mM CaCl2, 150 mM NaCl, 5 mM DTI, 13.4 mM glycine methylester, 50 μM Abz-APE(CAD-DNP)QEA-OH, (Zedira product A102; patent No.: EP 1781807B1), pH=7.4). From this master-mix solution, 285 μl are added per well containing the inhibitor. Increase in fluorescence is measured using λex=313 nm and λem=418 nm at 37° C. for 20 min. A slope of the increase in fluorescence between 10 and 20 min is calculated for determination of the IC50 value (inhibitor concentration at which 50% of the initial TG2 activity is blocked).
Analysis of enzymatic activity is performed by calculation of the slope of an increase in fluorescence intensity. IC50 values are calculated by plotting the enzymatic activity (as percentage from control containing 2% DMSO instead of inhibitor) against the inhibitor concentration. IC50 is defined as the inhibitor concentration blocking 50%) of initial enzyme activity.

Structure (SMILES) | IC50
CCC(CC)CNC(=O)Cn1cc(Br)cc(NC(=O)[C@H](CCC(=O)C(=O)NC)NC(=O)c2cncn2C)c1=O [Compound E46, (S)—N1-(5-bromo-1-(2-(2-ethylbutylamino)-2-oxoethyl)-2-oxo-1,2-dihydropyridin-3-yl)-N6-methyl-2-(1-methyl-1H-imidazole-5-carboxamido)-5-oxohexanediamide] | 0.095 µM
CCC(CC)CNC(=O)Cn1cc(C(F)(F)F)cc(NC(=O)[C@H](CCC(=O)C(=O)NC)NC(=O)c2cncn2C)c1=O [Compound E47, (S)—N1-(1-(2-(2-ethylbutylamino)-2-oxoethyl)-2-oxo-5-(trifluoromethyl)-1,2-dihydropyridin-3-yl)-N6-methyl-2-(1-methyl-1H-imidazole-5-carboxamido)-5-oxohexanediamide] | 0.08 µM
CCN(CC)C(=O)Cn1cccc(NC(=O)[C@H](CCC(=O)C(=O)NC)NC(=O)c2cncn2C)c1=O [Compound E50, (S)—N1-(1-(2-(diethylamino)-2-oxoethyl)-2-oxo-1,2-dihydropyridin-3-yl)-N6-methyl-2-(1-methyl-1H-imidazole-5-carboxamido)-5-oxohexanediamide] | 0.3 µM
CNC(=O)C(=O)CC[C@H](NC(=O)c1cncn1C)C(=O)Nc1cccn(CC(=O)NS(C)(=O)=O)c1=O [Compound E51, (S)—N1-methyl-5-(1-methyl-1H-imidazole-5-carboxamido)-N6-(1-(2-(methylsulfonamido)-2-oxoethyl)-2-oxo-1,2-dihydropyridin-3-yl)-2-oxohexanediamide] | 0.76 µM
CCOC(=O)Cn1cccc(NC(=O)[C@H](CCC(=O)C(=O)NC)NC(=O)c2cncn2C)c1=O [Compound E52, (S)-ethyl 2-(3-(2-(1-methyl-1H-imidazole-5-carboxamido)-6-(methylamino)-5,6-dioxohexanamido)-2-oxopyridin-1(2H)-yl)acetate] | 0.5 µM
CNC(=O)C(=O)CC[C@H](NC(=O)c1cncn1C)C(=O)Nc1cccn(CC(=O)OCCOC)c1=O [Compound E53, (S)-2-methoxyethyl 2-(3-(2-(1-methyl-1H-imidazole-5-carboxamido)-6-(methylamino)-5,6-dioxohexanamido)-2-oxopyridin-1(2H)-yl)acetate] | 0.75 µM
CNC(=O)C(=O)CC[C@H](NC(=O)c1cncn1C)C(=O)Nc1cccn(CC(=O)NCOC)c1=O [Compound E54, (S)—N1-(1-(2-(methoxymethylamino)-2-oxoethyl)-2-oxo-1,2-dihydropyridin-3-yl)-N6-methyl-2-(1-methyl-1H-imidazole-5-carboxamido)-5-oxohexanediamide] | 0.55 µM
CNC(=O)C(=O)CC[C@H](NC(=O)c1cncn1C)C(=O)Nc1cccn(CC(=O)NCN(C)C)c1=O [Compound E55, (S)-N1-(1-(2-((dimethylamino)methylamino)-2-oxoethyl)-2-oxo-1,2-dihydropyridin-3-yl)-N6-methyl-2-(1-methyl-1H-imidazole-5-carboxamido)-5-oxohexanediamide] | 0.2 µM
CCS(=O)(=O)NC(=O)Cn1cccc(NC(=O)[C@H](CCC(=O)C(=O)NC)NC(=O)c2cncn2C)c1=O [Compound E56, (S)—N1-(1-(2-(ethylsulfonamido)-2-oxoethyl)-2-oxo-1,2-dihydropyridin-3-yl)-N6-methyl-2-(1-methyl-1H-imidazole-5-carboxamido)-5-oxohexanediamide] | 0.85 µM
CCC(CC)CNC(=O)Cn1cccc(NC(=O)[C@H](CCC(=O)C(=O)NC)NC(=O)OC(C)(C)C)c1=O [Compound E58, (S)-tert-butyl 1-(1-(2-(2-ethylbutylamino)-2-oxoethyl)-2-oxo-1,2-dihydropyridin-3-ylamino)-6-(methylamino)-1,5,6-trioxohexan-2-ylcarbamate] | 0.28 µM
CCC(CC)CNC(=O)Cn1cccc(NC(=O)[C@H](CCC(=O)C(=O)NC)NC(=O)CCC(=O)O)c1=O [Compound E59, (S)-4-(1-(1-(2-(2-ethylbutylamino)-2-oxoethyl)-2-oxo-1,2-dihydropyridin-3-ylamino)-6-(methylamino)-1,5,6-trioxohexan-2-ylamino)-4-oxobutanoic acid] | 0.625 µM
CCC(CC)CNC(=O)Cn1cccc(NC(=O)[C@H](CCC(=O)C(=O)NC)NC(=O)[C@@H]2CC(=O)CN2)c1=O [Compound E60, (S)—N1-(1-(2-(2-ethylbutylamino)-2-oxoethyl)-2-oxo-1,2-dihydropyridin-3-yl)-N6-methyl-5-oxo-2-((S)-4-oxopyrrolidine-2-carboxamido)hexanediamide] | 0.06 µM
CCC(CC)CNC(=O)Cn1cccc(NC(=O)[C@H](CCC(=O)C(=O)NC)NC(=O)c2ccoc2)c1=O [Compound E61, (S)—N1-(1-(2-(2-ethylbutylamino)-2-oxoethyl)-2-oxo-1,2-dihydropyridin-3-yl)-2-(furan-3-carboxamido)-N6-methyl-5-oxohexanediamide] | 0.08 µM

The remaining lines, values ahead:

IC50 | Structure (SMILES)
0.07 µM | CCC(CC)CNC(=O)Cn1cccc(NC(=O)[C@H](CCC(=O)C(=O)NC)NC(=O)c2cnco2)c1=O [Compound E62, (S)—N1-(1-(2-(2-ethylbutylamino)-2-oxoethyl)-2-oxo-1,2-dihydropyridin-3-yl)-N6-methyl-2-(oxazole-5-carboxamido)-5-oxohexanediamide]
0.08 µM | CCC(CC)CNC(=O)Cn1cccc(NC(=O)[C@H](CCC(=O)C(=O)NC)NC(=O)C2CCN(C)CC2)c1=O [Compound E63, (S)—N1-(1-(2-(2-ethylbutylamino)-2-oxoethyl)-2-oxo-1,2-dihydropyridin-3-yl)-N6-methyl-2-(1-methylpiperidine-4-carboxamido)-5-oxohexanediamide]
0.095 µM | CCC(CC)CNC(=O)Cn1cccc(NC(=O)[C@H](CCC(=O)C(=O)NC)NC(=O)c2cncnc2)c1=O [Compound E64, (S)—N1-(1-(2-(2-ethylbutylamino)-2-oxoethyl)-2-oxo-1,2-dihydropyridin-3-yl)-N6-methyl-5-oxo-2-(pyrimidine-5-carboxamido)hexanediamide]
0.065 µM | CCC(CC)CNC(=O)Cn1cccc(NC(=O)[C@H](CCC(=O)C(=O)NC)NC(=O)c2cnc3ccccc3n2)c1=O [Compound E65, (S)—N1-(1-(2-(2-ethylbutylamino)-2-oxoethyl)-2-oxo-1,2-dihydropyridin-3-yl)-N6-methyl-5-oxo-2-(quinoxaline-2-carboxamido)hexanediamide]
0.12 µM | CCC(CC)CNC(=O)Cn1cccc(NC(=O)[C@H](CCC(=O)C(=O)NC)NS(=O)(=O)c2sc(C)nc2C)c1=O [Compound E66, (S)-2-(2,4-dimethylthiazole-5-sulfonamido)-N1-(1-(2-(2-ethylbutylamino)-2-oxoethyl)-26 oxo-1,2-dihydropyridin-3-yl)-N6-methyl-5-oxohexanediamide]
0.15 µM | CCC(CC)CNC(=O)Cn1cccc(NC(=O)[C@H](CCC(=O)C(=O)NC)NS(=O)(=O)c2c(Cl)nc3sccn23)c1=O [Compound E67, (S)-2-(6-chloroimidazo[2,1-b]thiazole-5-sulfonamido)-N1-(1-(2-(2-ethylbutylamino)-2-oxoethyl)-2-oxo-1,2-dihydropyridin-3-yl)-N6-methyl-5-oxohexanediamide]
0.15 µM | CCC(CC)CNC(=O)Cn1cccc(NC(=O)[C@H](CCC(=O)C(=O)NC)NS(=O)(=O)c2nccn2C)c1=O [Compound E68, (S)—N1-(1-(2-(2-ethylbutylamino)-2-oxoethyl)-2-oxo-1,2-dihydropyridin-3-yl)-N6-methyl-2-(1-methyl-1H-imidazole-2-sulfonamido)-5-oxohexanediamide]
